Assay results: US20230416196A1, “DIMER OF BIGUANIDINES AND THEIR THERAPEUTIC USES” (INSTITUT CURIE, priority 2020, published 2023)

How the values were obtained:
αKG in activated MDM = assay: α-Ketoglutarate (αKG) fluorometric quantification in activated MDM; assay type: cell-based, human; settings: Met 10 mM, LCC-12 10 μM; FIG. 3B
Experimental: (§1) Cell culture. Peripheral blood samples were collected from distinct healthy donors (Etablissement Français du Sang). Pan monocytes were isolated by negative magnetic sorting using microbeads according to the manufacturer's instructions (Miltenyi Biotec, 130-096-537), and cultured in RPMI 1640 supplemented with glutamine (Thermo Fisher Scientific, 61870010), 10% fetal bovine serum and exposed to granulocyte-macrophage colony-stimulating factor (GM-CSF, Miltenyi Biotec, 130-093-866, 100 ng/mL) to induce differentiation into macrophages (MDM). […]
α-Ketoglutarate (αKG) measurements. αKG was quantified using a fluorometric assay (Abcam, ab83431) according to the manufacturer's protocol. […] Cells were subsequently washed with ice-cold 1×PBS and counted. […] Samples were centrifuged at 13000× g for 15 min and the supernatants collected. αKG levels were measured using a standard curve and a control to subtract pyruvate background levels. Fluorescence intensities (ex. 535 nm; em. 590 nm) were recorded using a Perkin Elmer Wallac 1420 Victor2 Microplate Reader, and data were normalized against cell number. […]

[1] = test system: inflammatory genes in activated MDM; assay: RNA-seq gene expression in activated MDM; assay type: cell-based, human; settings: LCC-12 10 μM; FIG. 4A-C
Experimental: as §1
RNA-seq. […] Sequencing was carried out on a NovaSeq 6000 instrument from Illumina based on a 2×100 cycle mode (paired-end reads, 100 bases). Raw sequencing reads were first checked for quality with Fastqc (0.11.8) and trimmed for adapter sequences with the trimGalore (0.6.2) software. Trimmed reads were then aligned on the human hg38 reference genome using the STAR mapper (2.6.1b), up to the generation of a raw count table per gene (GENCODE annotation v29). […] Raw data from (Fernandes et al., 2016, 7, e00027-16; Gongalves et al., 2020, Nat. Commun. 11, 2282) were downloaded from the NCBI Short Read Archive under records PRJNA528433 and PRJNA290995 and processed as described above. […] Differential expression was assessed with the limma voom framework (v 3.44.3) (Ritchie et al., 2015, Nucleic Acids Res. 43, e47). […]

Compound: N=C(N)NC(=N)NCCCCCCCCCCCCNC(=N)NC(=N)N [LCC-12, lipophilic copper clamp C12]
- increase of αKG in activated MDM (αKG in activated MDM): more potent than Met at a dose 1000-fold lower
- expression of inflammatory genes compared to activated MDM [1]: reduced expression of a subset of inflammatory genes
